Measurements: article PMC9290507, “Rh^II‐Catalyzed De‐symmetrization of Ethane‐1,2‐dithiol and Propane‐1,3‐dithiol Yields Metallo‐β‐lactamase Inhibitors” (Chemmedchem, 2021)

Experiments:
VIM‐1 = molecular target: T1, VIM‐1 (Pseudomonas aeruginosa, UniProt A0A0F7KYQ8); experiment: Fluorescence-based enzyme activity assay (Fluorocillin), VIM-1; assay type: biochemical
T1 construct: made in house
Procedure: (§1) In order to investigate the structure‐activity relationships of the dithiol library, we measured the inhibitory activity of 3 a–x in a fluorescence‐based enzyme activity assay (Table 1). Two relevant β‐lactamase isoforms, NDM‐1 and VIM‐1 were selected for in vitro assays. The fluorogenic substrate fluorocillin[15] was prepared according to literature and its conversion was monitored as described previously.[6] In general, a linear relationship between the potency of 3 a–x towards both enzymes could be observed, however, inhibitory potency towards VIM‐1 was almost tenfold higher (Figure 3). A very clear preference for the propane‐1,3‐dithiol over ethane‐1,2‐dithiol compounds could be observed from matched molecular pairs.
(§2) Activity assays for MBLs were performed at room temperature in black polystyrol 96well plates (Corning, Corning, NY, USA) using dicefalotinodifluorofluorescein (Fluorocillin) as a substrate. Proteins were diluted in assay buffer (HEPES 50 mM, pH 7.5 containing 0.01 %Triton X‐100), with final protein concentrations of NDM‐1: 3 nM, or VIM‐1: 4 nM. Samples were supplemented with an equimolar amount of ZnCl2. An amount of 1 μL of compounds 3 a–3 x at different concentrations was incubated with 89 μL of enzyme in assay buffer. After an incubation period of 30 min at room temperature, 10 μL of Fluorocillin substrate was added to yield the final assay volume of 100 μL. Final concentration of DMSO was 1 %. The fluorescence emitted by the fluorescent product difluorofluorescein was monitored every 45 s for 30 cycles using a Tecan fluorescent plate reader (Infinite 200; excitation at 495 nm and emission at 525 nm) and was compared with a standard curve. The rate of the enzymatic reaction was obtained by dividing the quantity of the fluorescent product (RFU) by time (min). Negative controls were measured in the absence of enzyme, whereas the positive controls were measured in the presence of enzyme and in the absence of inhibitors. The inhibitory effect of each substance was measured in triplicate in three independent experiments. IC50 values were calculated using data obtained from measurements with at least eight different inhibitor concentrations, applying a sigmoidal dose–response (variable slope with four parameters) equation using GraphPad Prism 5 (GraphPad Software, La Jolla, CA, USA) software. In order to investigate the inhibitory activity of 3 a, 3 o, or 3 s in the presence of a high Zn^2+ concentration, assay buffer containing an additional 100 μM ZnCl2 was used. The assay was performed as described above with NDM‐1 or VIM‐1 and 10 μM of 3 a, 3 o, or 3 s.

NDM‐1 = molecular target: T2, NDM‐1 (Klebsiella pneumoniae, UniProt C7C422); experiment: Fluorescence-based enzyme activity assay (Fluorocillin), NDM-1; assay type: biochemical
T2 construct: made in house
Procedure: as §1, §2

E. coli NDM‐1 (T2359) [1] = experiment: Checkerboard synergy assay with imipenem, E. coli NDM-1; assay type: cell-based; conditions: for Imipenem MIC: E. coli NDM-1 (T2359)
Procedure: (§3) To investigate this, the MIC of imipenem or combined with various concentrations of compound 3a, 3o, or 3 s was determined against E. coli transformants producing NDM‐1 or VIM‐1 (Table 3 and 4).
(§4) Minimal inhibitory concentrations (MICs) of imipenem monohydrate (Sigma‐Aldrich)±compound 3 a, 3 o, or 3 s against transformed E. coli strains producing NDM‐1 or VIM‐1 were determined according to microdilution method established by Clinical and Laboratory Standards Institute (CLSI).^20 The checkerboard assay was performed to test for synergy in vitro. The microtiter‐plates were set up with serial doubling dilutions of compound 3 a, 3 o, or 3 s (2‐128 mg/L) and imipenem (0.125‐128 mg/L).

VIM‐2 = molecular target: T3, VIM‐2 (Escherichia coli, UniProt Q5U7L7); experiment: Kd determination using isothermal titration calorimetry; assay type: binding; conditions: ITC, 250 μM compound into 50 μM VIM-2, 25 °C
T3 construct: made in house
Procedure: The next step was the investigation of the binding thermodynamics of 3 a, 3 o, and 3 s. For these experiments we used a closely related enzyme VIM‐2 which is an isoform of VIM‐1 and can be recombinantly expressed in very high concentrations, suitable tor isothermal titration calorimetry (ITC) experiments (Figure 6).
VIM‐2 expression and purification was published elsewhere.[19] Before the measurement the VIM‐2 protein was dialyzed against 500 times the volume of buffer (50 mM Tris, 500 mM NaCl, 5 % (v/v) glycerol with a pH=8) using a dialysis membrane with a 3.5 kDa MWCO. For the measurements the compounds 3 a, 3 o, or 3 s, respectively, were diluted using the dialyses buffer to a final concentration of 250 μM containing a final DMSO concentration of 1 %. The VIM‐2 protein was diluted to a final concentration of 50 μM, supplemented with 1 % DMSO using the dialysis buffer and pure DMSO. For the control measurements dialysis buffer was supplemented with pure DMSO to a final concentration of 1 %. The measurements were performed using an “Affinity ITC” (TA‐Instruments) in reversed mode, with a stir rate of 75 rpm and a temperature of 25 °C. The VIM‐2 was placed in the cell and the respective compound in the syringe. For blank measurements either the protein or compound dilution were exchanged with buffer containing 1 % DMSO. For the measurements of 3 a and 3 s one time 0.5 μl was injected followed by 50 injections of 2 μl with a spacing of 240 s. 3 o was measured with one injection of 0.5 μl followed by 35 injections of 2 μl with a spacing of 240 s. The data were analyzed using the “NanoAnalyze Data Analysis” software (version 3.10.0; TA‐Instruments).

E. coli NDM‐1 (T2359) [2] = experiment: Intrinsic antimicrobial activity (MIC, CLSI microdilution), E. coli NDM-1; assay type: cell-based
Procedure: as §4

E. coli VIM‐1 (T2544) [3] = experiment: Intrinsic antimicrobial activity (MIC, CLSI microdilution), E. coli VIM-1; assay type: cell-based; conditions: Escherichia coli
Procedure: as §4

E. coli VIM‐1 (T2544) [4] = experiment: Checkerboard synergy assay with imipenem, E. coli VIM-1; assay type: cell-based; conditions: for Imipenem MIC: E. coli VIM-1 (T2544)
Procedure: as §3, §4

[5] = 10 μM compound, additional 100 μM ZnCl2 in assay buffer
[6] = Escherichia coli, read-out: Imipenem MIC

T2 sequence (C7C422 29-270, looked up, species assumed): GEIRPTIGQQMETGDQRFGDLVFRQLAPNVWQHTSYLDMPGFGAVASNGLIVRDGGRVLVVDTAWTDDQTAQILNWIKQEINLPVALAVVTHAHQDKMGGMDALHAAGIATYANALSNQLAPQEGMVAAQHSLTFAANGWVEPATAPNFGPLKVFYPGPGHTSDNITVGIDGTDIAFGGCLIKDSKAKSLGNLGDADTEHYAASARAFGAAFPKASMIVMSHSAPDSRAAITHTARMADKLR

O=C1OCCC1SCCS (stereo not shown) [3 h, 3‐((2‐Mercaptoethyl)thio)dihydrofuran‐2(3H)‐one]
IC50 (VIM‐1): 460 ± 30 nM
IC50 (NDM‐1): 3630 ± 470 nM

O=C1C(SCCS)CCN1c1ccccc1 (stereo not shown) [3 n, 3‐((2‐Mercaptoethyl)thio)‐1‐phenylpyrrolidin‐2‐one]
IC50 (VIM‐1): 80 nM
IC50 (NDM‐1): 1410 ± 70 nM

O=C1C(SCCCS)CCN1c1cccc(C(F)(F)F)c1 (stereo not shown) [3 q, 3‐((3‐Mercaptopropyl)thio)‐1‐(3‐(trifluoromethyl)phenyl)pyrrolidin‐2‐one]
IC50 (VIM‐1): 70 ± 10 nM
IC50 (NDM‐1): 480 ± 10 nM

Cc1ccc(C(=O)CSCCS)cc1 [3 b, 2‐((2‐Mercaptoethyl)thio)‐1‐(p–tolyl)ethanone]
IC50 (VIM‐1): 220 ± 30 nM
IC50 (NDM‐1): 3910 ± 420 nM

Cc1ccc(C(=O)CSCCCS)cc1 [3 c, 2‐((3‐Mercaptopropyl)thio)‐1‐(p–tolyl)ethanone]
IC50 (VIM‐1): 70 ± 10 nM
IC50 (NDM‐1): 250 ± 60 nM

O=C1CCCC1SCCCS (stereo not shown) [3 a, 2‐((3‐Mercaptopropyl)thio)cyclopentanone]
Imipenem MIC (E. coli NDM‐1 (T2359) [1]; +2 μg/ml compound): 128 µg/mL
Imipenem MIC (E. coli NDM‐1 (T2359) [1]; +4 μg/ml compound): 128 µg/mL
Imipenem MIC (E. coli NDM‐1 (T2359) [1]; +8 μg/ml compound): 128 µg/mL
Imipenem MIC (E. coli NDM‐1 (T2359) [1]; +16 μg/ml compound): 64 µg/mL
Imipenem MIC (E. coli NDM‐1 (T2359) [1]; +32 μg/ml compound): 64 µg/mL
Imipenem MIC (E. coli NDM‐1 (T2359) [1]; +64 μg/ml compound): 64 µg/mL
Imipenem MIC (E. coli NDM‐1 (T2359) [1]; +128 μg/ml compound): 32 µg/mL
IC50 (VIM‐1): 170 ± 40 nM
Effect of added zinc ions on inhibitory activity (VIM-1) (VIM‐1; [5]): does not impair the inhibitory activity
Kd (VIM‐2): 880 nM
Kd (VIM‐2; inset of Figure 6): 878 nM
MIC (E. coli NDM‐1 (T2359) [2]; Escherichia coli): > 512 µg/mL
Intrinsic antimicrobial activity (E. coli NDM‐1 (T2359) [2]; compound alone, E. coli transformants producing NDM-1 or VIM-1 (Table 2)): no intrinsic antimicrobial activity
MIC (E. coli VIM‐1 (T2544) [3]): > 512 µg/mL
IC50 (NDM‐1): 480 ± 70 nM
Effect of added zinc ions on inhibitory activity (NDM-1) (NDM‐1; [5]): does not impair the inhibitory activity
Imipenem MIC (E. coli VIM‐1 (T2544) [4]; +2 μg/ml compound): 32 µg/mL
Imipenem MIC (E. coli VIM‐1 (T2544) [4]; +4 μg/ml compound): 32 µg/mL
Imipenem MIC (E. coli VIM‐1 (T2544) [4]; +8 μg/ml compound): 16 µg/mL
Imipenem MIC (E. coli VIM‐1 (T2544) [4]; +16 μg/ml compound): 16 µg/mL
Imipenem MIC (E. coli VIM‐1 (T2544) [4]; +32 μg/ml compound): 16 µg/mL
Imipenem MIC (E. coli VIM‐1 (T2544) [4]; +64 μg/ml compound): 16 µg/mL
Imipenem MIC (E. coli VIM‐1 (T2544) [4]; +128 μg/ml compound): 8 µg/mL

CN(Cc1ccc(Cl)cc1)C(=O)CSCCS [3 w, N‐(4‐Chlorobenzyl)‐2‐((2‐mercaptoethyl)thio)‐N‐methylacetamide]
IC50 (VIM‐1): 100 ± 10 nM
IC50 (NDM‐1): 580 ± 30 nM

C[C@@H](O)[C@H]1C(=O)N2C(C(=O)O)=C(SCCN=CN)C[C@H]12 [Imipenem, imipenem, reference compound]
MIC (E. coli NDM‐1 (T2359) [1]; [6]): 128 µg/mL
MIC (E. coli VIM‐1 (T2544) [4]; [6]): 32 µg/mL

CN1CCC(SCCCS)C1=O (stereo not shown) [3 m, 3‐((3‐Mercaptopropyl)thio)‐1‐methylpyrrolidin‐2‐one]
IC50 (VIM‐1): 180 nM
IC50 (NDM‐1): 1580 ± 220 nM

CCOC(=O)C(SCCS)c1ccc([N+](=O)[O-])cc1 (stereo not shown) [3 j, Ethyl 2‐((2‐mercaptoethyl)thio)‐2‐(4‐nitrophenyl)acetate]
IC50 (VIM‐1): 900 ± 60 nM
IC50 (NDM‐1): 1550 ± 420 nM

O=C(CSCCCS)c1ccc(F)cc1 [3 e, 1‐(4‐Fluorophenyl)‐2‐((3‐mercaptopropyl)thio)ethanone]
IC50 (VIM‐1): 230 ± 50 nM
IC50 (NDM‐1): 600 ± 30 nM

CCOC(=O)C(SCCCS)c1ccc([N+](=O)[O-])cc1 (stereo not shown) [3 k, Ethyl 2‐((3‐mercaptopropyl)thio)‐2‐(4‐nitrophenyl)acetate]
IC50 (VIM‐1): 730 ± 50 nM
IC50 (NDM‐1): 7790 ± 1300 nM

O=C(CSCCS)c1ccc(Cl)cc1 [3 d, 1‐(4‐Chlorophenyl)‐2‐((2‐mercaptoethyl)thio)ethanone]
IC50 (VIM‐1): 230 ± 10 nM
IC50 (NDM‐1): 5630 ± 1190 nM

COc1ccc(C(=O)CSCCS)cc1 [3 f, 2‐((2‐Mercaptoethyl)thio)‐1‐(4‐methoxyphenyl)ethanone]
IC50 (VIM‐1): 180 ± 10 nM
IC50 (NDM‐1): 1340 ± 320 nM

COC(=O)C(SCCS)c1ccc(Cl)cc1 (stereo not shown) [3 i, Methyl 2‐(4‐chlorophenyl)‐2‐((2‐mercaptoethyl)thio)acetate]
IC50 (VIM‐1): 190 ± 10 nM
IC50 (NDM‐1): 880 ± 160 nM

N#Cc1ccc(N2CCC(SCCS)C2=O)cc1 (stereo not shown) [3 t, 4‐(3‐((2‐Mercaptoethyl)thio)‐2‐oxopyrrolidin‐1‐yl)benzonitrile]
IC50 (VIM‐1): 100 ± 20 nM
IC50 (NDM‐1): 1190 ± 120 nM

O=C1C(SCCS)CCN1c1nccs1 (stereo not shown) [3 r, 3‐((2‐Mercaptoethyl)thio)‐1‐(thiazol‐2‐yl)pyrrolidin‐2‐one]
IC50 (VIM‐1): 40 ± 20 nM
IC50 (NDM‐1): 1540 ± 30 nM

COC(=O)CC(SCCCS)C(=O)OC (stereo not shown) [3 l, Dimethyl 2‐((3‐mercaptopropyl)thio)succinate]
IC50 (VIM‐1): 40 ± 10 nM
IC50 (NDM‐1): 440 ± 110 nM

CN(C(=O)CSCCS)[C@H]1CCCC[C@@H]1O (relative stereo) [3 v, N‐((1S*,2S*)‐2‐Hydroxycyclohexyl)‐2‐((2‐mercaptoethyl)thio)‐N‐methylacetamide]
IC50 (VIM‐1): 330 ± 20 nM
IC50 (NDM‐1): 5500 ± 300 nM

O=C(CSCCCS)N1CCN(Cc2ccc(Cl)cc2)CC1 [3 u, 1‐(4‐(4‐Chlorobenzyl)piperazin‐1‐yl)‐2‐((3‐mercaptopropyl)thio)ethan‐1‐one]
IC50 (VIM‐1): 300 ± 20 nM
IC50 (NDM‐1): 3310 ± 120 nM

COc1ccc(C(=O)CSCCCS)cc1 [3 g, 2‐((3‐Mercaptopropyl)thio)‐1‐(4‐methoxyphenyl)ethanone]
IC50 (VIM‐1): 140 nM
IC50 (NDM‐1): 430 ± 20 nM

Cc1ccc(S(=O)(=O)N2CCN(C(=O)CSCCS)CC2)cc1 [3 x, 2‐((2‐Mercaptoethyl)thio)‐1‐(4‐tosylpiperazin‐1‐yl)ethanone]
IC50 (VIM‐1): 400 ± 30 nM
IC50 (NDM‐1): 2400 ± 130 nM

O=C1C(SCCS)CCN1c1cccc(C(F)(F)F)c1 (stereo not shown) [3 p, 3‐((2‐Mercaptoethyl)thio)‐1‐(3‐(trifluoromethyl)phenyl)pyrrolidin‐2‐one]
IC50 (VIM‐1): 220 ± 10 nM
IC50 (NDM‐1): 2080 ± 110 nM
